Data as given in article PMC6013488, “A widely-applicable high-throughput cellular thermal shift assay (CETSA) using split Nano Luciferase” (Scientific Reports, 2018).
Counter-ions that a name gives are not always drawn. Like-named read-outs stand apart in the source and are kept apart here.

Target: T1, CDK9/cyclin K (Homo sapiens, UniProt P50750)
T1 construct: purchased Invitrogen (ThermoFisher) PV4335
Assay: TR-FRET Lanthascreen Eu Kinase Binding assay
Settings: for Curve Class: classifies curves by quality of fit, efficacy and number of asymptotes; for Efficacy: difference between highest and lowest activity across concentration range; for Efficacy / Max Resp: in %
Description: The TR-FRET Lanthascreen Eu Kinase Binding assay for CDK9/cyclin K was purchased from ThermoFisher and performed as per manufacturer instructions.

[1] = logarithm of AC50, read-out: Log AC50 (converted)
[2] = concentration at which half maximal activity is observed, 7-point qHTS, read-out: AC50

T1 sequence (P50750 whole entry): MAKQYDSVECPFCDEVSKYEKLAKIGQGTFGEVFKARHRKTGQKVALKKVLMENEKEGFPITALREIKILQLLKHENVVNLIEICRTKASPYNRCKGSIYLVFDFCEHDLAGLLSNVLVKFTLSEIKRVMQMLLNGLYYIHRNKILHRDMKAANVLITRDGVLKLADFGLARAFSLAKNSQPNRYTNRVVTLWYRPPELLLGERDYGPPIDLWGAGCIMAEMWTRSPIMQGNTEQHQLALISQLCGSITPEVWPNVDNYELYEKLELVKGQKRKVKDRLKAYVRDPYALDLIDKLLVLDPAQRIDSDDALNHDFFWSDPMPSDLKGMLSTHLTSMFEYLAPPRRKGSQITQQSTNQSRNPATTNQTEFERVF
T1 sequence (O75909 whole entry partner): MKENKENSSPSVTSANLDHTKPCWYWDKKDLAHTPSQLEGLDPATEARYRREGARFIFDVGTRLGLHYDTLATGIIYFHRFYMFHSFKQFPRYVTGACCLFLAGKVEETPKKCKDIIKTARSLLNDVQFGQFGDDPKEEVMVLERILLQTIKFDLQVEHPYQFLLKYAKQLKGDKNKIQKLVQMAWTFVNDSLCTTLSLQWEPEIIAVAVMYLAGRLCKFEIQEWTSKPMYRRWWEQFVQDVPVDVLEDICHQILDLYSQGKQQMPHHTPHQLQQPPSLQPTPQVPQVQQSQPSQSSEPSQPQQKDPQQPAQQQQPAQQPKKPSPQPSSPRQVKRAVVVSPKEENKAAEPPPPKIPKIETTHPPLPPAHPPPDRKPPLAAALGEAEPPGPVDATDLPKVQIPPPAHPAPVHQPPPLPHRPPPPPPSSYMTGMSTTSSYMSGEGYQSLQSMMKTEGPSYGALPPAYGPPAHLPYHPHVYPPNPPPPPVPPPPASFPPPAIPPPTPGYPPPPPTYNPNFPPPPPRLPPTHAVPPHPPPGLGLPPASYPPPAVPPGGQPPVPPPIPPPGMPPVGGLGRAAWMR

N[C@H]1CC[C@H](Nc2nc(Nc3ccc(C(=O)N4CCCCC4)cc3)c3ncn(-c4cccc(F)c4)c3n2)CC1 [Purfalcamine]
Curve Class: -1.2
Efficacy: -78.7
Max Resp: -96.3
AC50 [1]: 631 nM

Cc1cc(CN2CCN(c3c(Br)cnc4[nH]c(-c5ccc(N6CCN(C)CC6)cc5)nc34)CC2)no1 [CCT137690]
Curve Class: -1.2
Efficacy: -77.1
Max Resp: -79.3

O=[N+]([O-])c1cccc2[nH]c(CNc3nc(N4CCOCC4)nc4c3ncn4-c3ccsc3)nc12 [NCGC00386926-01]
Curve Class: -1.2
Efficacy: -69.1
Max Resp: -72.6

Cc1n[nH]c2ccc(-c3cncc(OC[C@@H](N)Cc4c[nH]c5ccccc45)c3)cc12 [Compound A-443654, A-443654]
Curve Class: -1.1
Efficacy: -88.0
Max Resp: -96.6

CC(C)c1cnn2c(NCc3ccccc3)cc(N[C@@H](CO)[C@H](O)CO)nc12 [BS194]
Curve Class: -1.1
Efficacy: -108.2
Max Resp: -95.8

CN[C@H]1CCN(C(=O)c2ccc(Nc3ncc(F)c(-c4cnc(C)n4C(C)C)n3)cc2)C1 [AZD-5597]
Curve Class: -1.3
Efficacy: -51.7
Max Resp: -96.5

CC(C)n1nc(-c2ccc(NC(=O)Nc3cccc(C(F)(F)F)c3)cc2)c2c(N)ncnc21 [AD57 (hydrochloride)]
Curve Class: -1.1
Efficacy: -86.8
Max Resp: -79.5

CC(C)c1cc(CNc2nc(Nc3cc(C4CC4)[nH]n3)cc(N3CCN(C)CC3)n2)on1 [XL-228]
Curve Class: -1.1
Efficacy: -97.1
Max Resp: -96.7

O=C1NC(=O)/C(=C/c2ccc3nccc(-c4ccncc4)c3c2)S1 [GSK-1059615]
Curve Class: -1.2
Efficacy: -79.9
Max Resp: -87.0

CN1CC[C@@H](c2c(O)cc(O)c3c(=O)cc(-c4ccc(C(F)(F)F)cc4Cl)oc23)[C@@H]1CO [Voruciclib]
Curve Class: -1.1
Efficacy: -95.6
Max Resp: -95.8

C[C@@H](Oc1ccc2[nH]nc(/C=C/c3cnn(CCO)c3)c2c1)c1c(Cl)cncc1Cl [LY2874455]
Curve Class: -1.1
AC50 [2]: 299 nM
Efficacy: -87.6
Max Resp: -91.8

Cc1n[nH]c2ccc(-c3cncc(OC[C@@H](N)Cc4ccccc4)c3)cc12 [Compound A-674563, A-674563]
Curve Class: -1.1
Efficacy: -89.8
Max Resp: -98.7

Cc1ncc(-c2ccnc(Nc3ccc(S(C)(=O)=O)cc3)n2)n1C(C)C [AZD5438]
Curve Class: -1.2
Efficacy: -75.7
Max Resp: -98.3

CC(C)[C@H](CO)Nc1nc(Nc2cccc(Cl)c2)c2ncn(C(C)C)c2n1 [Purvalanol A]
Curve Class: -1.1
Efficacy: -79.6
Max Resp: -72.7

CC(=O)c1c(C)c2cnc(Nc3ccc(N4CCNCC4)cn3)nc2n(C2CCCC2)c1=O [Palbociclib (PD-0332991) HCl]
Curve Class: -1.1
Efficacy: -92.3
Max Resp: -91.0

CCOC(=O)c1c(/C(C#N)=C\N)c2ccc(Cl)c(Cl)c2n1C [KH-CB19]
AC50 (AC50, concentration at which half maximal activity is observed, 7-point qHTS): 336 nM
Curve Class: -1.1
Efficacy: -88.2
Max Resp: -90.2

COc1ccc(-c2cc3nccn3c(Nc3ncccc3C(N)=O)n2)cc1OC [BAY 61-3606 (dihydrochloride)]
Curve Class: -1.1
Efficacy: -91.8
Max Resp: -92.1

O=C(O)c1ccc2c(c1)nc(Nc1cccc(Cl)c1)c1ccncc12 [CX-4945 (sodium salt)]
Curve Class: -1.1
Efficacy: -98.0
Max Resp: -93.5

CC1(COc2ccc3c(c2)ncn3-c2ccc3cccc(N4CCC(N)CC4)c3n2)COC1 [CP-868596 (Crenolanib)]
Curve Class: -1.1
Efficacy: -91.6
Max Resp: -90.2

Cc1ccc(C(N)=O)cc1Nc1nccc(-c2cn(C(C)C)c3cnccc23)n1 [NCGC00263020-01]
Curve Class: -1.1
Efficacy: -90.3
Max Resp: -99.8

O=C(Nc1ccnc(NC(=O)C2CC2)c1)c1c(Cl)cccc1Cl [GDC-046]
Curve Class: -1.1
AC50 [2]: 33.6 nM
Efficacy: -83.7
Max Resp: -94.2
AC50 [1]: 31.6 nM

N#Cc1ccnc(Nc2cc(C3CCN(C4COC4)CC3)cc(N3CCC(F)(F)C3)n2)c1 [NCGC00384250-01]
Curve Class: -1.2
AC50 [2]: 189 nM
Efficacy: -76.1
Max Resp: -87.1

N#C/C(=C\c1ccc(O)c(O)c1)C(=O)NCCCNC(=O)/C(C#N)=C/c1ccc(O)c(O)c1 [Tyrphostin AG 537]
Curve Class: -1.1
Efficacy: -98.0
Max Resp: -83.8

O=C(O)c1ccc(-c2c[nH]c3ncc(-c4ccccc4)cc23)cc1C1CCCC1 [GSK-650394]
Curve Class: -1.2
Efficacy: -77.0
Max Resp: -89.0

O=C1Nc2ccccc2/C1=C1/Nc2ccccc2/C1=N\OCCC(O)CO (centres unmarked) [Indirubin_E8]
Curve Class: -1.1
Efficacy: -83.1
Max Resp: -81.2

N#CCNC(=O)c1ccc(-c2ccnc(Nc3ccc(N4CCOCC4)cc3)n2)cc1 [CYT-387]
Curve Class: -1.1
Efficacy: -85.8
Max Resp: -96.7

Nc1n[nH]c(N)c1N=Nc1ccc(O)cc1 (stereo in doubt) [CAY10574]
Curve Class: -1.1
Efficacy: -84.6
Max Resp: -95.5

CC(C)CC(=O)Nc1[nH]nc2c1CN(C(=O)C1CCN(C)CC1)C2(C)C [PHA-793887]
Curve Class: -1.1
Efficacy: -87.0
Max Resp: -99.5

O=C1NC(=O)C(c2cnc3ccccn23)=C1c1cn2c3c(cc(F)cc13)CN(C(=O)N1CCCCC1)CC2 [LY2090314]
Curve Class: -1.1
Efficacy: -79.5
Max Resp: -83.9
AC50 [1]: 631 nM

CC[C@@](C)(Nc1ccnc(-c2c[nH]c3ncccc23)n1)C(=O)NCC(F)(F)F [VX-509 (Decernotinib)]
Curve Class: -1.1
Efficacy: -91.7
Max Resp: -97.1

OCCCNc1cc(-c2ccnc(Nc3cccc(Cl)c3)n2)ccn1 [CGP60474]
Curve Class: -1.2
Efficacy: -56.9
Max Resp: -98.0

COCCOc1ccc2c(c1)ncn2-c1ccc2cccc(N3CCC(N)CC3)c2n1 [CP-673451]
Curve Class: -1.1
AC50 [2]: 150 nM
Efficacy: -83.3
Max Resp: -91.2

CC(C)c1c2cc(-c3ccnc(N[C@H]4CC[C@H](NC5CCOCC5)CC4)n3)ccc2nn1C [LY2857785]
Curve Class: 5
Efficacy: -28.1
Max Resp: -89.7

CN1CCC(c2c(O)cc(O)c3c(=O)cc(-c4ccccc4Cl)oc23)C1CO (centres unmarked) [Compound P276-00, P276-00]
Curve Class: -1.2
Efficacy: -60.7
Max Resp: -99.0

O=C1Nc2ccc(F)cc2/C1=C1\Nc2ccccc2\C1=N\O [5 -Fluoroindirubinoxime]
Curve Class: -1.1
Efficacy: -80.2
Max Resp: -86.1

COc1ccc2c(NC(=O)Nc3cccc(C(F)(F)F)n3)ccnc2c1 [A 1070722]
Curve Class: -1.4
Efficacy: -58.3
Max Resp: -64.1

Cn1cc(C2=C(c3cn(CCCSC(=N)N)c4ccccc34)C(=O)NC2=O)c2ccccc21 [Ro 31-8220 (mesylate)]
Curve Class: -1.3
Efficacy: -42.0
Max Resp: -60.6

O=C1OC(/C=C/c2ccccc2)=NC/1=C\c1cccnc1 [TC-DAPK 6]
Curve Class: -1.2
Efficacy: -71.2
Max Resp: -68.2

CN(C)C/C=C/C(=O)Nc1cccc(C(=O)Nc2ccc(Nc3nccc(-c4cccnc4)n3)cc2)c1 [JNK-IN-7]
Curve Class: -1.1
Efficacy: -86.0
Max Resp: -91.6

N#C/C(=C1\Nc2ccccc2S1)c1ccnc(NCCc2cccnc2)n1 [AS601245]
Curve Class: -1.2
Efficacy: -79.8
Max Resp: -85.8

COc1ccc2c(c1)/C(=C/c1cnc[nH]1)C(=O)N2 [SU9516]
Curve Class: -1.1
Efficacy: -93.0
Max Resp: -90.2

Nc1nc(Nc2ccc(S(N)(=O)=O)cc2)nn1C(=O)c1c(F)cccc1F [JNJ7706621]
Curve Class: -1.1
Efficacy: -93.4
Max Resp: -97.5

O=C(NCc1cccc(O)c1)Nc1nc(-c2ccncc2)cs1 [RKI-1447]
Curve Class: -1.2
Efficacy: -64.8
Max Resp: -59.5

O=C1NC(=O)/C(=C/c2ccc3nccc(-c4ccncc4)c3c2)S1 [GSK1059615]
Curve Class: -1.1
Efficacy: -89.8
Max Resp: -91.2

CN(c1ncccc1CNc1nc(Nc2ccc3c(c2)CC(=O)N3)ncc1C(F)(F)F)[S+](C)(=O)[O-] [PF-562271]
Curve Class: -1.1
Efficacy: -92.3
Max Resp: -101.3

CNC(=O)c1ccc(Nc2ncc(C(F)(F)F)c(NCc3nccnc3N(C)[S+](C)(=O)[O-])n2)cc1 [Defactinib (VS-6063, PF-04554878)]
Curve Class: -1.1
Efficacy: -79.8
Max Resp: -50.3

Cc1nc(N)sc1-c1ccnc(Nc2ccc(N3CCOCC3)cc2)n1 [CYC-116]
Curve Class: -1.1
Efficacy: -92.0
Max Resp: -90.5

CC(C)c1nn(-c2c(Cl)cccc2Cl)c2nc(Cc3ccc(OCCO)cc3)[nH]c(=O)c12 [Cdk/Crk Inhibitor]
Curve Class: -1.2
Efficacy: -57.1
Max Resp: -99.2

CCS(=O)(=O)c1cccc(-c2cc(C(=O)NC3CCN(C)CC3)c(C)c3[nH]c4ncc(C)cc4c23)c1 [TAK-901]
Curve Class: -1.1
Efficacy: -101.2
Max Resp: -96.3

O=C1Nc2ccc3ncsc3c2/C1=C/Nc1ccc([S+](=O)([O-])Nc2ccccn2)cc1 [GW8510]
Curve Class: -1.1
Efficacy: -99.4
Max Resp: -92.5
